From patent US4997829A, “Penem compounds, and use thereof” (Suntory Limited, priority 1985, dated 1991)

Assays:
Assay in all cases: Minimum inhibitory concentration (MIC), agar plate dilution method
Assay type in all cases: cell-based
[1] = tested on: K. pneumoniae PC1602; settings: Klebsiella pneumoniae, PC1602; 10^6 CFU inoculated, 37° C., 18 hours
Protocol: (§1) With regard to the novel compounds obtained according to this invention and the compounds of Reference Examples, their minimum inhibitory concentrations (MIC) were determined by the agar plate dilution method in accordance with the MIC measuring standard method of The Chemotherapeutic Society of Japan, whereby 10^6 colony forming units were inoculated and the minimal concentration to inhibit the microbial growth after inclubation at 37° C. for 18 hours were determined, as shown as μg/ml in Table.

[2] = tested on: Pr. morganii IFO3848; settings: Morganella morganii, IFO3848; 10^6 CFU inoculated, 37° C., 18 hours
Protocol: as §1

[3] = tested on: S. aureus FAD209P JC-1; settings: Staphylococcus aureus, FAD209PJC1; 10^6 CFU inoculated, 37° C., 18 hours
Protocol: as §1

[4] = tested on: F. varium ATCC8501; settings: Fusobacterium varium, ATCC8501; 10^6 CFU inoculated, 37° C., 18 hours
Protocol: as §1

[5] = tested on: E. coli W3630/Rms212; settings: Escherichia coli, W3630/RMS212, 18 h, read-out: minimum inhibitory concentration (MIC)
Protocol: as §1

[6] = tested on: E. coli W3630/Rms213; settings: Escherichia coli, W3630/RMS213, 18 h, read-out: minimum inhibitory concentration (MIC)
Protocol: as §1

[7] = tested on: Ser. marcescens IMA 1136; settings: Serratia marcescens, IMA1136; 10^6 CFU inoculated, 37° C., 18 hours
Protocol: as §1

[8] = tested on: M. luteus ATCC9341; settings: Micrococcus luteus, ATCC9341; 10^6 CFU inoculated, 37° C., 18 hours
Protocol: as §1

[9] = tested on: Pr. vulgaris GN7919; settings: Proteus vulgaris, GN7919; 10^6 CFU inoculated, 37° C., 18 hours
Protocol: as §1

[10] = tested on: B. fragilis GM7000; settings: Bacteroides fragilis, GM7000; 10^6 CFU inoculated, 37° C., 18 hours
Protocol: as §1

[11] = tested on: Ent. cloacae 963; settings: Enterobacter cloacae, 963; 10^6 CFU inoculated, 37° C., 18 hours
Protocol: as §1

[12] = tested on: Al. fecalis IFO13111; settings: 10^6 CFU inoculated, 37° C., 18 hours
Protocol: as §1

[13] = tested on: B. fragilis V-280-1; settings: Bacteroides fragilis, V2801; 10^6 CFU inoculated, 37° C., 18 hours
Protocol: as §1

[14] = tested on: E. coli NIHI JC-2; settings: Escherichia coli, NIHIJC2; 10^6 CFU inoculated, 37° C., 18 hours
Protocol: as §1

| Structure (SMILES) | MIC [1] | MIC [2] | MIC [3] | MIC [4] | MIC [5] | MIC [6] | MIC [7] | MIC [8] | MIC [9] | MIC [10] | MIC [11] | MIC [12] | MIC [13] | MIC [14] |
| --- | --- | --- | --- | --- | --- | --- | --- | --- | --- | --- | --- | --- | --- | --- |
| C[C@@H](O)[C@H]1C(=O)N2C(C(=O)O)=C(C3COCCO3)S[C@H]12 (mixture of isomers) [SUN 4742, Potassium (1'R, 2"s, 5R, 6S and 1'R, 2"R, 5R, 6S)-6-(1'-hydroxyethyl)-2-(2"-paradioxanyl)penem-3-carboxylate] | 0.1 mg/L | 6.25 mg/L | 0.05 mg/L | 0.78 mg/L | 3.13 mg/L | 0.78 mg/L | 6.25 mg/L | 0.1 mg/L | 0.78 mg/L | 0.05 mg/L | 6.25 mg/L | 0.78 mg/L | 0.05 mg/L | 1.56 mg/L |
| C[C@@H](O)[C@H]1C(=O)N2C(C(=O)O)=C(Cc3ccsc3)S[C@H]12 (relative stereo) [SUN 3514, Potassium (1'R, 5R, 6S and 1'S, 5S, 6R)-6-(1'-hydroxyethyl)-2-(3"-thiophenemethyl)penem-3-carboxylate, reference compound] | 0.78 mg/L | 8.13 mg/L | 0.05 mg/L | 0.39 mg/L | 50 mg/L | 25 mg/L | 50 mg/L | 0.2 mg/L | 6.25 mg/L | 0.39 mg/L | > 50 mg/L | 0.39 mg/L | 0.39 mg/L | > 50 mg/L |
| CCSCC1=C(C(=O)O)N2C(=O)[C@H]([C@@H](C)O)[C@H]2S1 (relative stereo) [SUN 3515, Potassium (1'R, 5R, 6S and 1'S, 5S, 6R)-2-ethylmethylthio)-6-(1'-hydroxyethyl)-penem-3-carboxylate, reference compound] | 0.78 mg/L | 3.13 mg/L | 0.1 mg/L | 0.39 mg/L | 25 mg/L | 12.5 mg/L | 25 mg/L | 0.2 mg/L | 1.56 mg/L | 0.1 mg/L | 50 mg/L | 0.78 mg/L | 0.2 mg/L | 25 mg/L |
| CCOCC1=C(C(=O)O)N2C(=O)[C@H]([C@@H](C)O)[C@H]2S1 (relative stereo) [SUN 3519, Potassium (1'R, 5R, 6S and 1's, 5S, 6R)-2-(ethoxymethyl)-6-(1'-hydroxyethyl)-penem-3-carboxylate, reference compound] | 1.56 mg/L | 6.25 mg/L | 0.2 mg/L | 0.39 mg/L | 6.25 mg/L | 6.25 mg/L | 12.5 mg/L | 0.2 mg/L | 1.56 mg/L | 0.1 mg/L | 12.5 mg/L | 1.56 mg/L | 0.1 mg/L | 6.25 mg/L |
| COCC1=C(C(=O)O)N2C(=O)[C@H]([C@@H](C)O)[C@H]2S1 (relative stereo) [SUN 3585, Potassium (1'R, 5R, 6S and 1'S, 5S, 6R)-6-(1-hydroxyethyl)-2-(methoxymethyl)penem-3-carboxylate, reference compound] | 0.78 mg/L | 6.25 mg/L | 0.1 mg/L | 0.78 mg/L | 0.78 mg/L | 0.78 mg/L | 3.13 mg/L | 0.1 mg/L | 0.78 mg/L | 0.05 mg/L | 3.13 mg/L | 1.56 mg/L | 0.1 mg/L | 0.78 mg/L |
| C[C@@H](O)[C@H]1C(=O)N2C(C(=O)O)=C(C3CCCO3)S[C@H]12 (relative stereo) [SUN 4068, potassium (1'R, 2"R, 5R, 6S and 1'R, 2"S, 5R, 6S and 1'S, 2"R, 5S, 6R and 1'S, 2"S, 5S, 6R)-6-(1'-hydroxyethyl)-2-(2"-tetrahydrofuranyl)penem-3-carboxylate] | 0.39 mg/L | 3.13 mg/L | 0.1 mg/L | 0.78 mg/L | 3.13 mg/L | 3.13 mg/L | 6.25 mg/L | 0.1 mg/L | 0.78 mg/L | 0.05 mg/L | 6.25 mg/L | 1.56 mg/L | 0.2 mg/L | 1.56 mg/L |
| C[C@@H](O)[C@H]1C(=O)N2C(C(=O)O)=C([C@@H]3CCCO3)S[C@H]12 (relative stereo) [SUN 4118, potassium (1'R, 2"S, 5R, 6S and 1'S, 2"R, 5S, 6R)-6-(1'-hydroxyethyl)-2-(2"-tetrahydrofuranyl)penem-3-carboxylate] |  |  | 0.1 mg/L | 1.56 mg/L | 12.5 mg/L | 12.5 mg/L | 25 mg/L | 0.05 mg/L | 1.56 mg/L |  | 25 mg/L | 1.56 mg/L | 0.2 mg/L |  |
| C[C@@H](O)[C@H]1C(=O)N2C(C(=O)O)=C(c3ccco3)S[C@H]12 (relative stereo) [SUN 4194, Potassium (1'R, 5R, 6S and 1',S, 5S, 6R)-2-(2"-furanyl)-6-(1'-hydroxyethyl)penem-3-carboxylate, reference compound] | 3.13 mg/L | 12.5 mg/L | 0.39 mg/L | 6.25 mg/L | 25 mg/L | 25 mg/L | 25 mg/L | 0.2 mg/L | 3.13 mg/L | 0.39 mg/L | 25 mg/L | 6.25 mg/L | 6.25 mg/L | 25 mg/L |
| C[C@@H](O)[C@H]1C(=O)N2C(C(=O)O)=C(c3ccoc3)S[C@H]12 (relative stereo) [SUN 4196, Potassium (1'R, 5R, 6S and 1'S, 5S, 6R)-2-(3"-furanyl)-6(1'-hydroxyethyl)penem-3-carboxylate, reference compound] | 3.13 mg/L | 12.5 mg/L | 0.2 mg/L | 6.25 mg/L | 25 mg/L | 25 mg/L | 25 mg/L | 0.2 mg/L | 3.13 mg/L | 0.78 mg/L | 25 mg/L | 12.5 mg/L | 12.5 mg/L | 1.25 mg/L |
| C[C@@H](O)[C@H]1C(=O)N2C(C(=O)O)=C([C@@H]3CCC(=O)O3)S[C@H]12 [SUN 4262, Potassium (1'R, 2"S, 5R, 6S)-6-(1'-hydroxyethyl)-2-[2"-(5"-oxo)oxolanyl]penem-3-carboxylate] | 1.56 mg/L | 12.5 mg/L | 0.2 mg/L | 3.13 mg/L | 3.13 mg/L | 3.13 mg/L | 12.5 mg/L | 0.2 mg/L | 3.13 mg/L | 0.2 mg/L | 12.5 mg/L | 3.13 mg/L | 0.2 mg/L | 3.13 mg/L |
| C[C@@H](O)[C@H]1C(=O)N2C(C(=O)O)=C([C@H]3CCC(=O)O3)S[C@H]12 [SUN 4374, Potassium (1'R, 2"R, 5R, 6S)-6-(1'-hydroxyethyl)-2[2"-(5"-oxo)oxolanyl]penem-3-carboxylate] | 0.39 mg/L | 3.13 mg/L | 0.1 mg/L |  | 1.56 mg/L | 0.78 mg/L | 3.13 mg/L | 0.1 mg/L | 0.78 mg/L |  | 3.13 mg/L | 1.56 mg/L |  | 1.56 mg/L |
| C[C@@H](O)[C@H]1C(=O)N2C(C(=O)O)=C([C@@H]3CCCO3)S[C@H]12 [SUN 4434, Potassium (1'R, 2"S, 5R, 6S)-6-(1'-hydroxyethyl)-2-(2"-tetrahydofuranyl)penem-3-carboxylate] |  |  | 0.05 mg/L | 1.56 mg/L | 12.5 mg/L | 6.25 mg/L | 25 mg/L | < 0.025 mg/L | 0.78 mg/L |  | 12.5 mg/L | 3.13 mg/L | 0.2 mg/L |  |
